In one experiment the test system is caspase-3. As to the kind of experiment: Caspase-3 activation assay. Format: cell-based, human. To be noted: PC-3 cell line. The source says: Caspase-3 is a key caspase that cleaves numerous cell proteins, resulting in apoptosis. […] They elevated the protein caspase-3 in the PC-3 cancer cell line by around seven to nine times compared to untreated control cells.
For more details, see Supplementary Materials. […]
4.2.3. Caspase-3 activation assay
Allow all reagents to reach room temperature before use. Gently mix all liquid reagents prior to use. Determine the number of 8-well strips needed for the assay. Insert these in the frame(s) for current use. Add 100 μl of the Standard Diluent Buffer to the zero standard wells. Well(s) reserved for chromogen blank should be left empty. Add 100 μl of standards and controls or diluted samples to the appropriate microtiter wells. The sample dilution chosen should be optimized for each experimental system. Tap gently on side of plate to mix. Cover wells with plate cover and incubate for 2 hours at room temperature. Thoroughly aspirate or decant solution from wells and discard the liquid, Wash wells 4 times. Pipette 100 μl of Caspase-3 (Active) Detection Antibod y solution into each well except the chromogen blank(s). Tap gently on the side of the plate to mix.
Cover plate with plate cover and incubate for 1 hour at room temperature. Thoroughly aspirate or decant solution from wells and discard the liquid, Wash well s 4 times. Add 100 μl Anti-Rabbit IgG HRP Working Solution to each well except the chromogen blank(s). Prepare the working dilution as described in Preparing IgG HRP. Cover wells with the plate cover and incubate for 30 minutes at room temperature. Thoroughly aspirate or decant solution from wells and discard the liquid. Wash wells 4 times. Add 100 μl of Stabilized Chromogen to each well. The liquid in the wells will begin to turn blue. Incubate for 30 minutes at room temperature and in the dark. The incuba tion time for chromogen substrate is often determined by the microtiter plate reader used. Many plate readers have the capacity to record a maximum optical density (O.D.) of 2.0. The O.D. values should be monitored, and the substrate reaction stopped befor e the O.D. of […]
the positive wells exceeds the limits of the instrument. The O.D. values at 450 nm can only be read after the Stop Solution has been added to each well. If using a reader that […]
100 μl of Stop Solution to each well. Tap side of plate gently to mix. The solution in the wells should change from blue to yellow. Read the absorbance of each well at 450 nm having blanked the plate reader against a chromogen blank composed of 100 μl each of Stabilized Chromogen and Stop Solution. Read the plate within 2 hours after adding the Stop Solution. Use a curve fitting software to generate the standard curve. A four-parameter algorithm provides the best standard curve fit. Read the concentrations for unknown samples and controls from the standard curve. Multiply value(s) obtained for sample(s) by the appropriate dilution factor to correct for the dilution in step 3. Samples producing signals greater than that of the highest standard should be diluted in Standard Diluent Buffer and reanalyzed. […]
A standard curve is […]
prepared from 7human Caspase-8 standard dilutions and human Caspase-8 concentration determined.

In another experiment the test system is Bax. As to the kind of experiment: Bax activation assay. Format: cell-based, human. To be noted: PC-3 cell line. Here is the method:
For more details, see Supplementary Materials.
4.2.5. Bax activation assay
Bring all reagents, except the human Bax-α Standard, to room temperature for at least 30 minutes prior to opening. The human Bax -α Standard solution should not be left at room temperature for more than 10 minutes. All standards, controls and samples should be run in duplicate. Refer to the Assay Layout Sheet to determine the number of wells to be used and put any remaining wells with the desiccant back into the pouch and seal the ziploc. Store unused wells at 4 °C. Pipet 100 μL of Assay Buffer into the S0 ( 0 pg/mL standard) wells. Pipet 100 μL of Standards #1 through #6 into the appropriate wells. Pipet 100 μL of the Samples into the appropriate wells. Tap the plate gently to mix the contents. Seal the plate and incubate at room temperature on a plate shaker for 1 hour at ~500 rpm. Empty the contents of the wells and wash by adding 400 μL of wash solution to every well. Repeat the wash 4 more times for a total of 5 washes. After the final wash, empty or aspirate the wells and firmly tap the plate on a lint fr ee paper towel to remove any remaining wash buffer. Pipet 100 μL of yellow Antibody into each well, except the Blank. Seal the plate and incubate at room temperature on a plate shaker for 1 hour at ~500 rpm. Empty the contents of the wells and wash by addi ng 400 μL of […]
the final wash, empty or aspirate the wells and firmly tap the plate on a lint free paper towel to remove any remaining wash buffer. Add 100 μL of blue Co njugate to each well, except the Blank. Seal the plate and incubate at room temperature on a plate shaker for 30 minutes at ~500 rpm. Empty the contents of the wells and wash by adding 400 μL of wash solution to every well. Repeat the wash 4 more times for a total of 5 washes .
After the final wash, empty or aspirate the wells and firmly tap the plate on a lint free paper towel to remove any remaining wash buffer. Pipet 100 μL of Substrate Solution into each well. Incubate for 30 minutes at room temperature on a plate shaker at ~500 rpm. Pipet 100 μL Stop Solution to each well. Blank the plate reader against the Blank wells, read the optical density at 450 nm. Calculate the average net Optical Density (OD) bound for each standard and sample by subtracting the average Blank OD from the average OD for each standard and sample. Using linear graph paper, plot the Average Net OD for each standard versus Bax concentration in each standard.
Approximate a straight line through the points. The concentration of Bax in the unknowns can be determined by interpolation. […]

The record followed here is PMC10819888, “Benzimidazole-Based Derivatives as Apoptotic Antiproliferative Agents: Design, Synthesis, Docking, and Mechanistic Studies” (Molecules, 2024).

Take `O=C(NN=Cc1ccc([N+](=O)[O-])cc1)c1ccc2[nH]c(-c3ccc(Cl)cc3)nc2c1` [Compound 4c, N′-(4-Nitrobenzylidene)-2-(4-chlorophenyl)-1H-benzimidazole-5-carbohydrazide]: in the experiment with caspase-3, the “Caspase-3 Conc” value stood at 365 ± 12 pg/mL and the caspase-3 protein level is listed as 365 ± 12 pg/mL. For the same compound, in the experiment on Bax, the “Bax Conc” value was determined as 185 pg/mL, the “Bax increase compared to untreated PC-3 cancer cells” value is 26 fold and the Bax level was determined as 185 pg/mL.

For the compound `O=C(NN=Cc1ccc(Cl)cc1)c1ccc2[nH]c(-c3ccc(Cl)cc3)nc2c1` [Compound 4e, N′-(4-Chlorobenzylidene)-2-(4-chlorophenyl)-1H-benzimidazole-5-carbohydrazide], in the experiment on caspase-3, the “Caspase-3 Conc” value stood at 470 ± 15 pg/mL and the caspase-3 protein level was 470 ± 15 pg/mL. In the experiment with caspase-3 (vs control), the “Caspase-3 Fold Change” value turned out to be 9. In addition, in the experiment on Bax, the “Bax Conc” value is 220 pg/mL, the “Bax increase compared to untreated PC-3 cancer cells” value is recorded as 31 fold and the Bax level is on record as 220 pg/mL. Further, the “Bax Fold Change” value in the experiment with Bax (vs control) amounted to 31.
